Results as given in patent publication US4395391A, “Unsymmetrically substituted dicarboxylic-acid-bis-(2,4,6-triiodo-anilides), their preparation, and x-ray contrast media containing same” (priority 1980, dated 1983).

Columns and labels:
[1] = test system: rat; assay: ED50 rat, intracisternal; assay type: in vivo; details: 200-250 g rat, diluted with 3% mannite solution
Experimental: (§1) least 4 doses were tested on 10 animals. The effectiveness criteria used
(§2) are the states of excitation, grave behavioral anomalies, coma and death
(§3) over the period of 24 h.
(3) With the test equipment essentially the same ss in (2), 200-250 g rat
are injected with contrast media in the cisterna suboccipitalis. The
contrast media were diluted with a 3% mannite solution to adjust the […]

[2] = test system: rat; assay: ED50 rat, pericerebrally (excitation, grave behavioral anomalies, coma and death over 24 h); assay type: in vivo; details: pericerebral (intracerebral) injection, 0.4 ml, rats about 100 g
Experimental: (2) Male and female rats of about 100 g in weight were injected
intracerebrally between the cheekbone and the occiputal bone through a
natural bone hole of the cranium while being slightly anesthesized with
ether. 0.4 ml injections of contrast media solutions of various
concentrations were used according to the method of Valzelli. The
injection was carried out with a Hamilton syringe 710 N for which the
penetration depth is limited to 10 mm. Depending on the preparation, at
as §1, §2, §3

[3] = test system: rat; assay: LD50, i.v., rat; assay type: in vivo; details: meglumine salt solutions 180 mg iodine per ml, 0.8 ml/minute
Experimental: (1) The contrast media were injected in the form of meglumine salt
solutions of 180 mg of iodine per ml at a rate of 0.8 ml/minute into male

[4] = distribution coefficient butanol/water, pH 7.4; assay type: physicochemical; details: meglumine salts
Text: By providing the compounds of this invention wherein only one of the two 5,5',-position hydrogen atoms is substituted, new contrast-producing substances are obtained. […] This can be shown by comparing the values of protein binding, compatibility, biliary and renal excretion of the meglumine salts of the conventional agent iodipamide (B) and an agent of this invention, hexane-diacid-1-(3-carboxy-2,4,6-triiodo-anilide)-6-(3-carboxy-5-N-methyl- carbamoyl-2,4,6-triido-anilide) (A).

[5] = test system: liver parenchyma; details: cited from earlier work
[6] = test system: liver parenchyma; details: cited from earlier work; remark: listed apart in the source
[7] = test system: dog liver; assay: computer tomography: maximum enrichment of contrast medium in dog liver; assay type: in vivo, dog (beagle); details: 360 mg I/kg, intravenous, meglumine salt solutions 180 mg of I/ml, beagles
Text: The extraordinarily pronounced enrichment of the compounds of this invention is shown in Table 2 listing the maximal enrichment in the liver following intravenous administration of the meglumine salt solutions of the prior art iosefamic acid (D) and of a compound of this invention, 3-oxapentane-diacid-1-([…]-2,4,6-triiodo-N-methylanilide)-5-(3-carboxy-5-N-methylcarbamoyl-2,4,6-triiodo-anilide) (E).
The values were obtained from healthy male and female beagles (Schering, breeder) with weights of 9-14 kg. The meglumine salt solutions contained 180 mg of I/ml.
The investigation of the x-ray density of the liver before administration of the contrast media and every 5 minutes up to 90 minutes thereafter was carried out using a full-body scanner of the EMI CT 5005/12 type, which operates on the basis of the rotation-translation principle. The scanning time was 20 seconds, the tube voltage 120 kv. For an image matrix of 320×320 elements, the standard deviation from the mean value of a normalized water phantom was 1.6% (i.e., +/-8 EU=EMI units). The computer tomograms were analyzed always on the same liver area by means of the analyzer "IVC" of the EMI Co.

SMILES	rat, intracisternal ED50 [1]	rat, pericerebrally ED50 [2]	LD50, i.v., rat [3]	distribution coefficient, butanol/water, pH 7.4 [4]	liver concentration for diagnosis improvement, humans [5]	liver concentration for diagnosis improvement, dog [6]	Maximum enrichment in dog liver [7]	time of maximum enrichment in dog liver (min. p. appl.) [7]
O=C(CCCCC(=O)Nc1c(I)cc(I)c(C(=O)O)c1I)Nc1c(I)cc(I)c(C(=O)O)c1I [B, iodipamide]	1.07 (0.54-1.83) mg of I per kg	6.35 (5.11-7.44) mg of I/kg	2.6 g of I/kg	0.278 +/- 0.008	–	–	–	–
CNC(=O)c1c(I)c(NC(=O)CCCCC(=O)Nc2c(I)cc(I)c(C(=O)O)c2I)c(I)c(C(=O)O)c1I [Compound A, Hexane-diacid-1-(3-carboxy-2,4,6-triiodo-anilide)-6-(3-carboxy-5-N-methylcarbamoyl-2,4,6-triiodo-anilide)]	15.6 (11.5-21.1) mg of I per kg	17.1 (11.8-23.6) mg of I/kg	5.5 g of I/kg	0.083 +/- 0.001	–	–	–	–
CNC(=O)c1c(I)c(NC(=O)CCCCCCCCC(=O)Nc2c(I)c(C(=O)O)c(I)c(C(=O)NC)c2I)c(I)c(C(=O)O)c1I [D, iosefamic acid]	–	–	–	–	not in humans	still adequate liver concentration for diagnosis improvement in the dog	22.8 EMI units	80 min. p. appl.
CNC(=O)c1c(I)c(NC(=O)COCC(=O)N(C)c2c(I)cc(I)c(C(=O)O)c2I)c(I)c(C(=O)O)c1I [E, 3-oxapentane-diacid-1-(3-carboxy-2,4,6-triiodo-N-methylanilide)-5-(3-carboxy-5-N-methylcarbamoyl-2,4,6-triiodo-anilide)]	–	–	–	–	–	–	–	90 min. p. appl.
